Experiments:
[1] = tested on: equine digital blood vessels; assay: isolated blood vessel work, isometric tension recording
Description: The coronary band veins and the distal artery were dissected from equine hind limbs obtained from abattoir collections (animals euthanased for non related reasons), cut into rings of approximately 3 mm in length and prepared for isometric tension recording—a method established in the laboratory for looking at endothelium intact responses of equine digital.

[2] = tested on: Tyrosine decarboxylase (TDC); assay: inhibition of decarboxylase activity; assay type: biochemical; conditions: tyrosine to tyramine by TDC
Description: Tyrosine decarboxylase (TDC) decarboxylases tyrosine to tyramine.

ponies = assay: effect of dietary fructan carbohydrates on normal and laminitic ponies; assay type: in vivo
Description: Eleven adult, native breed ponies were used in the diet study; 5 normals and 6 predisposed to laminitis (asymptomatic at the time of the study). A basal hay diet was fed for 2 weeks, prior to the inclusion of inulin (sourced from chicory root; 3 g/kg body weight per day), fed in 3 equal feeds. The daily forage ration also included ⅔ hay, by weight, and ⅓ Readigrass® (to act as a source of amino acids). Fecal and blood samples were taken during both diets to measure amine concentration (by HPLC and LC-MS, respectively) and fecal pH.

[3] = tested on: streptococci and lactobacilli in equine caecal contents; assay: in vitro model of carbohydrate overload: enumeration of caecal streptococci and lactobacilli; parameters: species or system horses; conditions: virginiamycin 1 mg/100 ml, with corn starch or inulin
Description: Use of an in vitro model of carbohydrate overload to study the change in populations of caecal streptococci and lactobacilli and to establish whether certain species of these bacteria were capable of producing vasoactive amines from amino acids.
Caecal contents from 10 horses were divided into aliquots and incubated anaerobically with either corn starch or inulin (fructan; both 1 g 100 ml). Samples were taken at 6 h intervals over a 24 h period for enumeration of streptococci, lactobacilli and Gram-negative anaerobes by a dilution method onto standard selective growth media. […]
Effects of carbohydrate overload on numbers of (a) streptococci, (b) lactobacilli and (c) Gram-negative anaerobes in equine caecal contents incubated anaerobically in vitro. […] Bacterial numbers in each aliquot at 6 h intervals were determined by serial dilution of caecal contents in sterile RPS plated onto selective growth medium. […]
Effects of virginiamycin and calcium hydrogen-phosphate on numbers of Streptococcus and Lactobacillus spp. in equine caecal contents induced by incubation with starch or inulin. […] Bacterial numbers were measured at 0 and 24 h, expressed as CFU/ml, and the magnitude of the change over this period was calculated by dividing the number of bacteria present at 24 h by the initial figure (geometric mean±s.e.m. of estimates taken from 4 separate experiments).

[4] = inulin diet vs basal hay diet, FIG. 12

CC(=O)N[C@@H](CS)C(=O)O [NAC, N-acetyl cysteine]
relaxation of isolated digital blood vessels ([1]; antioxidant added to the medium, vs control, FIG. 14): increase the relaxation above that of the control
contraction of digital veins in response to vasoactive amines ([1]; pre incubation in the medium, response to Tryptamine, FIG. 15): reduced contraction

NC(CO)C(=O)NNCc1ccc(O)c(O)c1O (stereo not drawn) [benserazide]
production of tyramine [2]: inhibited

O=c1c(-c2ccc(O)cc2)coc2cc(O)cc(O)c12 [genestin]
reduction of contraction of digital veins in response to vasoactive amines ([1]; flavonoid added to the medium, response to Tryptamine, FIG. 15): 30%

inulin
signs of laminitis (ponies; inulin 3 g/kg body weight per day in 3 feeds, 5 normal and 6 laminitis-predisposed ponies): No animal showed any signs of laminitis
increase in tryptamine concentration (ponies; [4]): 58.6%
increase in tyramine concentration (ponies; [4]): 23.3%

virginiamycin
effect on carbohydrate-induced increases in numbers of streptococci and lactobacilli [3]: abrogated

C[C@@](Cc1ccc(O)c(O)c1)(NN)C(=O)O [carbidopa]
production of tyramine [2]: inhibited
